# Experimental data as given in publication PMC7558026, “Exploring and applying the substrate promiscuity of a C-glycosyltransferase in the chemo-enzymatic synthesis of bioactive C-glycosides” (Nature Communications, 2020).
# Substitutions are numbered along the chain they refer to. Values joined by “and” are separate entries in the source; they are usually repeats but may differ in a detail not shown here. Equal values may be shown once.
# Columns and labels:
# AbCGT = AbCGT (Aloe vera, UniProt A0A7G9P699); assay: Glycosyltransferase activity assay, purified AbCGT (wild type) with aglycon acceptors and UDP-Glc; type: biochemical, Aloe barbadensis; conditions: for conversion rates, O,N,S-glycosylation / conversion rates, di-C-glycosylation / conversion rates, mono-C-glycosylation: aglycon acceptor with UDP-Glc, pH 7.4, 30 °C, up to 12 h, Reaction-1 to -3
# Sequence of AbCGT (A0A7G9P699 entry or part of it): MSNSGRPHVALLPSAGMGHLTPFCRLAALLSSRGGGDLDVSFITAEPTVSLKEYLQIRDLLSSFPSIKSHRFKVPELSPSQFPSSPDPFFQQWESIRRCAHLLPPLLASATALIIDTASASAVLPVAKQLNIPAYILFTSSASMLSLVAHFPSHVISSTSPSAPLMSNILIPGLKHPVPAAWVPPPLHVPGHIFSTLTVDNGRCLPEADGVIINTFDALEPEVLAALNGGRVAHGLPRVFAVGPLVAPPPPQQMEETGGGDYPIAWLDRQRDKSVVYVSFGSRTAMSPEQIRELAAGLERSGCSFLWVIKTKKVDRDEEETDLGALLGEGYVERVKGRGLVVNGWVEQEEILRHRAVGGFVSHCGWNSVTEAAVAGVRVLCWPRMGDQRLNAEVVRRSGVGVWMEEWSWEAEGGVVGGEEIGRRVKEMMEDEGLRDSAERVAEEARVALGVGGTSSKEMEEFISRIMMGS
# Method: Due to the instability of some acceptors in the buffer of pH 11.0, the reactions were performed under the physiological conditions (pH 7.4, 30 °C) to compare the catalytic activities of AbGT27 with different substrates under the same conditions. The reactions were performed at 30 °C for up to 12 h and terminated by the addition of 200 μL of ice-cold methanol. Subsequently, samples were centrifuged at 15,000 × g for 30 min to collect the supernatant, and aliquots were analyzed by HPLC-UV/ESIMS. […] The gradient programs were used for the analysis of the reactions (Supplementary Table 6). The conversion rates of the enzyme reactions were calculated from peak areas of glycosylated products and substrates as analyzed by HPLC. To facilitate inferential statistical analysis, three parallel assays were routinely performed; the means ± SD from triplicate analyses are reported here.
# AbCGT V183D = biological target: T1, AbCGT V183D (Aloe vera, UniProt A0A7G9P699, V183D); assay: Glycosyltransferase activity of AbCGT variant V183D; type: biochemical, Aloe barbadensis
# T1 sequence (A0A7G9P699 1-470 V183D): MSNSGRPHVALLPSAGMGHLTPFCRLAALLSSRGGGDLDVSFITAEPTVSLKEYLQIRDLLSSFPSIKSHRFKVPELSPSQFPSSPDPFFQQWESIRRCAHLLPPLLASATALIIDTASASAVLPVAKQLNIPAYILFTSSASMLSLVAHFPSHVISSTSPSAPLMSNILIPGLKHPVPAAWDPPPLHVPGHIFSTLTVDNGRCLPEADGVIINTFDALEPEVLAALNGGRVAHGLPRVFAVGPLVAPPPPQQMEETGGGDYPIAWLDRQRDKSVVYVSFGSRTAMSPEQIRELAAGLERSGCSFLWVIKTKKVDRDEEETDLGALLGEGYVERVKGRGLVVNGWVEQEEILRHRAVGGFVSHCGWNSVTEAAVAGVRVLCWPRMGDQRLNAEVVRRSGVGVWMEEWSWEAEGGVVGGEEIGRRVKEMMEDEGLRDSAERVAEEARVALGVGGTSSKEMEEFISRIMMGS
# Method: (§1) The reaction mixture contained 0.5 mM sugar donors (1.0 mM for di-glycosylation), 0.25 mM aglycons, 50 mM Tris-HCl (pH 7.4), and 50‒100 μg of purified AbCGT in a final volume of 100 μL. Due to the instability of some acceptors in the buffer of pH 11.0, the reactions were performed under the physiological conditions (pH 7.4, 30 °C) to compare the catalytic activities of AbGT27 with different substrates under the same conditions. The reactions were performed at 30 °C for up to 12 h and terminated by the addition of 200 μL of ice-cold methanol. Subsequently, samples were centrifuged at 15,000 × g for 30 min to collect the supernatant, and aliquots were analyzed by HPLC-UV/ESIMS. HPLC analysis was performed on a Shiseido CAPCELL PAK C18 MG III column (250 mm × 4.6 mm I.D., 5 μm, Shiseido Co., Ltd., Japan) at a flow rate of 1 mL min^‒1. The mobile phase was a gradient elution of solvents A (0.1% formic acid aqueous solution) and B (methanol). The gradient programs were used for the analysis of the reactions (Supplementary Table 6). The conversion rates of the enzyme reactions were calculated from peak areas of glycosylated products and substrates as analyzed by HPLC. To facilitate inferential statistical analysis, three parallel assays were routinely performed; the means ± SD from triplicate analyses are reported here.
# (§2) Site-saturation mutagenesis of AbCGT at residue 183 was performed by PCR using pET28a-AbCGT as a template and the corresponding degenerate primers, which are listed in Supplementary Table 5. PCR products were purified and transformed into Trans1-T1 (DE3) E. coli. The sequences of pET28a-AbCGT mutants were confirmed by sequencing, and transformed into Transetta (DE3) E. coli for heterologous expression following protein purification.
# AbCGT V183E = biological target: T2, AbCGT V183E (Aloe vera, UniProt A0A7G9P699, V183E); assay: Glycosyltransferase activity of AbCGT variant V183E; type: biochemical, Aloe barbadensis
# T2 sequence (A0A7G9P699 1-470 V183E): T1 sequence (A0A7G9P699 1-470 V183D) with D183E
# Method: as §1, §2
# SGLT2 = biological target: T3, SGLT2 (Homo sapiens, UniProt P31639); assay: 1-NBDG uptake in HEK293 cells stably expressing SGLT2; type: cell-based; conditions: HEK293, compound at 10 μM; triplicate; read-out: SGLT2 inhibitory rates
# T3 construct: Human full-length SGLT2 cDNA (NM_003041.3) was synthesized; expressed in transfected cells; host or cells: HEK293, retroviral transduction with pMSCVpuro-SGLT2, puromycin selected
# T3 sequence (P31639 1-672): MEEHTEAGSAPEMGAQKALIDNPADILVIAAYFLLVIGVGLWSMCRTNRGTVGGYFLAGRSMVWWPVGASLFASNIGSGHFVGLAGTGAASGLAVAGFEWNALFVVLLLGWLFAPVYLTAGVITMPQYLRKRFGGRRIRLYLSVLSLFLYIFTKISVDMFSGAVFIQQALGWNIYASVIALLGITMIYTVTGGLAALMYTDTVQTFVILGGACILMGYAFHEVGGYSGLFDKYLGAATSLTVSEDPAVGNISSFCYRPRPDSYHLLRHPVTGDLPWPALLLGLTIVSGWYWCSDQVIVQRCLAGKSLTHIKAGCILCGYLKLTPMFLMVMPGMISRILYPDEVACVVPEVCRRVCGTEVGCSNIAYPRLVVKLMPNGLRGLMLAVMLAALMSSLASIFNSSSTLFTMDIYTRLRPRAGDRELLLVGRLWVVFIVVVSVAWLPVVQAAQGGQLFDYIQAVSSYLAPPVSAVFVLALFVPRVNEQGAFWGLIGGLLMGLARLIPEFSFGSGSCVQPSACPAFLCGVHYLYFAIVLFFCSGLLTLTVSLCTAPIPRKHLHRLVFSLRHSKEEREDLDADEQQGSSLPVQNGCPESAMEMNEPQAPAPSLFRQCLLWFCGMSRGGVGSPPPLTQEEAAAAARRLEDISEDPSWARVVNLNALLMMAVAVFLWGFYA
SMILES,"conversion rates, O,N,S-glycosylation (AbCGT)","conversion rates, di-C-glycosylation (AbCGT) [%]","conversion rates, mono-C-glycosylation (AbCGT)",WT/yield of C-glycoside(%) (AbCGT; reaction-1),WT/yield of O-glycoside(%) (AbCGT; reaction-1),WT/yield of C-glycoside(%) (AbCGT; reaction-2),WT/yield of O-glycoside(%) (AbCGT; reaction-2),WT/yield of C-glycoside(%) (AbCGT; reaction-3),WT/yield of O-glycoside(%) (AbCGT; reaction-3),V183D/yield of C-glycoside(%) (AbCGT V183D; reaction-1),V183D/yield of O-glycoside(%) (AbCGT V183D; reaction-1),V183D/yield of C-glycoside(%) (AbCGT V183D; reaction-2),V183D/yield of O-glycoside(%) (AbCGT V183D; reaction-2),V183D/yield of C-glycoside(%) (AbCGT V183D; reaction-3),V183D/yield of O-glycoside(%) (AbCGT V183D; reaction-3),V183E/yield of C-glycoside(%) (AbCGT V183E; reaction-1),V183E/yield of O-glycoside(%) (AbCGT V183E; reaction-1),V183E/yield of C-glycoside(%) (AbCGT V183E; reaction-2),V183E/yield of O-glycoside(%) (AbCGT V183E; reaction-2),V183E/yield of C-glycoside(%) (AbCGT V183E; reaction-3),further results
CC(=O)c1c(O)cc(C)cc1O [Compound 7],77% and 78.6% and 82.4%,0,13.9% and 12% and 15.9%,15.2,77.6,14.1,78,13.5,81.4,8,0.8,7.2,1,7.2,1.3,11.1,0,8.9,0,13.1,V183E/yield of O-glycoside(%) (AbCGT V183E; reaction-3): 0%
COc1cc(O)c(C(C)=O)c(O)c1 [Compound 13],20.7% and 23.5% and 25.6%,0,66.9% and 65.9% and 68.6%,70.5,21.2,65,22.7,68.1,25.9,6.8,0,7.3,0,7,0,5.7,0.8,4.1,2,6,V183E/yield of O-glycoside(%) (AbCGT V183E; reaction-3): 1.1%
COc1cc(O)c(C(C)=O)c(OC)c1 [Compound 14],2% and 1.9%,0,0%,0,1.5,0,1.6,0,2.8,0,0,0,0,0,0,8,0,7.9,0,7.5,V183E/yield of O-glycoside(%) (AbCGT V183E; reaction-3): 0%
O=C(CCc1ccc(O)cc1)c1c(O)cc(O)c([C@@H]2O[C@H](CO)[C@@H](O)[C@H](O)[C@H]2O)c1O [Compound 17a],–,–,–,–,–,–,–,–,–,–,–,–,–,–,–,–,–,–,–,–,inhibition at 10 µM (SGLT2): 52.2%
O=C(CCc1ccc(O)cc1)c1c(O)c([C@@H]2O[C@H](CO)[C@@H](O)[C@H](O)[C@H]2O)c(O)c([C@@H]2O[C@H](CO)[C@@H](O)[C@H](O)[C@H]2O)c1O [Compound 17aa],–,–,–,–,–,–,–,–,–,–,–,–,–,–,–,–,–,–,–,–,inhibition at 10 µM (SGLT2): 2.8%
"O=C(CCc1ccc(O)cc1)c1c(O)cc(O)c(C2OC(CO)C(O)C(O)C2O)c1O [Compound 17b, phloretin-3′-C-β-D-galactoside]",–,–,–,–,–,–,–,–,–,–,–,–,–,–,–,–,–,–,–,–,inhibition at 10 µM (SGLT2): -3.1%
"O=C(CCc1ccc(O)cc1)c1c(O)cc(O)c(C2OCC(O)C(O)C2O)c1O [Compound 17c, phloretin-3′-C-β-D-xyloside]",–,–,–,–,–,–,–,–,–,–,–,–,–,–,–,–,–,–,–,–,inhibition at 10 µM (SGLT2): 1.7%
Oc1cc(O)cc(OCCCCCCc2ccccc2)c1 [Compound 22],33% and 31.4% and 25.1%,0,8.5% and 9.9% and 11.3%,9.6,28.2,11,26.9,9.5,34.6,0,0,0,0,0,0,0,0,0,0,0,V183E/yield of O-glycoside(%) (AbCGT V183E; reaction-3): 0%
